Common to all, as to test: NCI-60 cell line screen, 48 h
Experiment [1] has as its system CAKI-1 renal.
Experiment [2] deals with HCC-2998 colon.
Experiment [3] relates to HL-60(TB) leukemia.
Experiment [4] deals with HCT-116 colon.
Experiment [5] has as its system NCI-H226 lung.
Experiment [6] relates to IGROV1 ovarian.
For experiment [7], the system named is DU-145 prostate.
The test system of experiment [8] is SK-MEL-5 melanoma.
For experiment [9], the system named is UACC-257 melanoma.
Experiment [10] has as its system PC-3 prostate.

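Test compounds were applied to cells in 96-well plates for 48 hours at 5 doses. Definition used: TGI = concentration required for complete inhibition of growth.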

Regarding `O=c1[nH]nc(Nc2ccc(Cl)cc2)c2nnn(-c3ccc([N+](=O)[O-])cc3)c12`, the TGI is greater than 100 µM in experiment [1]; 64.7 µM in experiment [2]; greater than 100 µM in [3]; 42.4 µM in experiment [4]; greater than 100 µM in experiment [5]; greater than 100 µM in experiment [6]. The TGI in experiment [7] is 48.6 µM; in [8], 22.7 µM; in [9] it was greater than 100 µM; in experiment [10], 68.8 µM.

`CC(=O)OCC1OC(NC(=S)Nn2c(-c3ccccc3)nc3ccccc3c2=O)C(OC(C)=O)C(OC(C)=O)C1OC(C)=O` (stereo not given): the TGI in experiment [1], in experiment [2], in experiment [3], in [4], in experiment [5] and in experiment [6] was greater than 100 µM in each case. Also, the TGI in [7], in experiment [8], in experiment [9] and in experiment [10] was greater than 100 µM in each case.

In the case of `O=C1C/C(=C\c2ccccc2)C(=O)c2ccccc2N1`, the TGI came to 33.1 µM in [1]; 37.9 µM in [2]; 49.2 µM in [3]; 29.3 µM in experiment [4]; 80.4 µM in [5]; 38 µM in experiment [6]. Besides, the TGI in experiment [7] came out at 59.4 µM; in [8] it was 36.2 µM; in [9], 48.6 µM; in experiment [10], 50.1 µM.

Regarding `CCO/C=N\C1=C(C#N)SC2=N/C(=C\c3ccco3)C(=O)N21`, the TGI in experiment [1], in experiment [2], in experiment [3], in experiment [4], in experiment [5] and in [6] was greater than 100 µM in each case. Also, the TGI in [7], in [8], in experiment [9] and in [10] was greater than 100 µM in each case.

As to `COc1cc(N(CCC#N)CCC#N)ccc1/C(N=Nc1cccc([N+](=O)[O-])c1)=N\NC(=O)c1ccc(C)cc1`, the TGI was greater than 100 µM in [1]; greater than 100 µM in [2]; 49.1 µM in [3]; greater than 100 µM in experiment [4]; greater than 100 µM in [5]; greater than 100 µM in experiment [6]. Besides, the TGI in [7] is greater than 100 µM; in experiment [8], greater than 100 µM; in [9], 60.9 µM; in experiment [10], greater than 100 µM.

In the case of `O=c1oc2cc(O)ccc2c(O)c1C(c1ccc(/C=C/c2ccccc2)cc1)c1c(O)c2ccc(O)cc2oc1=O`, the TGI in experiment [1] was greater than 100 µM; in [2], greater than 100 µM; in experiment [3], 69.6 µM; in experiment [4], greater than 100 µM; in [5], greater than 100 µM; in experiment [6], greater than 100 µM. Moreover, the TGI in experiment [7] was greater than 100 µM; in experiment [8], 95 µM; in [9], greater than 100 µM; in experiment [10] it was greater than 100 µM.

As to `C/C(=N\NC(N)=O)C(CN1CCOCC1)C(c1ccccc1)c1c(O)c2ccccc2oc1=O` (stereo not given), the TGI in experiment [1], in [2], in experiment [3], in experiment [4], in experiment [5] and in experiment [6] was greater than 100 µM each time. The TGI in [7], in [8], in experiment [9] and in experiment [10] was greater than 100 µM in each case.

`COc1cccc(O)c1-c1cc(=O)c2c(O)c(OC)c(OC)c(OC)c2o1`: the TGI in experiment [1] was greater than 100 µM; in [2], 25.4 µM; in [3], 46.7 µM; in experiment [4], greater than 100 µM; in experiment [5], greater than 100 µM; in experiment [6] it was greater than 100 µM. The TGI in [7] came to 58.9 µM; in [8] it was 39.4 µM; in experiment [9], 80.5 µM; in experiment [10], 66.7 µM.

For `O=C(O)CN1CCN2CCOCCN(CC1)CCN(CC(=O)O)CC2`, the TGI in [1], in experiment [2], in experiment [3], in [4], in experiment [5] and in [6] was greater than 100 µM each time. The TGI in experiment [7], in experiment [8], in experiment [9] and in experiment [10] was greater than 100 µM throughout.

Values taken from PubChem BioAssay (NCI).
